{"source": "the supplement of paper PMC10307832", "data": [{"compound": "CN1CCN(CC1)C2=CC(=C(C=C2)NC3=NC(=C(S3)C(=O)C4=C(C=CC=C4Cl)Cl)N)OC [XMD14-99] + COc1cc2c(Oc3ccc(NC(=O)C4(C(=O)Nc5ccc(F)cc5)CC4)cc3F)ccnc2cc1OCCCN1CCOCC1 [Foretinib] (partner 0.25 µM)", "test": "relative viability (nuclei count vs DMSO), 5 days (fraction); higher = more cells survive", "settings": "first compound 0.08 µM", "summary_of_the_method": "(§1)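 For relative viability, nuclei counts in treated wells were divided by those in vehicle wells. Lung cancer cell lines had been pin-tool dosed in 1536-well plates the day after seeding and cultured for 5 days, then fixed and stained in one step (final 0.05% Triton X-100, 1% formaldehyde, 1 ug/ml Hoechst) and imaged at 4×. Doses were one drug alone or a fixed anchor-drug dose plus five library-drug doses (not always all listed) in √10 steps, and values are duplicate-plate medians.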", "values": [{"cell line": "NCI-H1703", "relative viability": 0.345}, {"cell line": "NCI-H2009", "relative viability": 1.21}, {"cell line": "NCI-H1993", "relative viability": 0.804}, {"cell line": "PC-14", "relative viability": 0.964}, {"cell line": "LCLC-103H", "relative viability": 0.802}, {"cell line": "NCI-H596", "relative viability": 0.957}, {"cell line": "NCI-H2228", "relative viability": 0.994}, {"cell line": "EMC-BAC-2", "relative viability": 1.05}, {"cell line": "NCI-H2087", "relative viability": 1.05}, {"cell line": "Calu-6", "relative viability": 0.897}, {"cell line": "HCC-366", "relative viability": 0.912}, {"cell line": "NCI-H1666", "relative viability": 1.02}, {"cell line": "NCI-H647", "relative viability": 1.3}, {"cell line": "LK-2", "relative viability": 0.99}, {"cell line": "NCI-H2126", "relative viability": 1.19}, {"cell line": "NCI-H2342", "relative viability": 1.15}, {"cell line": "SK-MES-1", "relative viability": 1.01}, {"cell line": "H3255", "relative viability": 0.956}, {"cell line": "COR-L23", "relative viability": 0.901}, {"cell line": "COR-L 105", "relative viability": 1.06}, {"cell line": "IA-LM", "relative viability": 1.05}, {"cell line": "LOU-NH91", "relative viability": 0.919}, {"cell line": "ChaGo-K-1", "relative viability": 0.82}, {"cell line": "NCI-H2170", "relative viability": 0.978}, {"cell line": "NCI-H3122", "relative viability": 0.948}, {"cell line": "HOP-62", "relative viability": 1.01}, {"cell line": "A549", "relative viability": 0.899}, {"cell line": "SW 900", "relative viability": 1.02}, {"cell line": "LU99A", "relative viability": 0.893}, {"cell line": "BEN", "relative viability": 0.662}, {"cell line": "HARA", "relative viability": 0.791}, {"cell line": "NCI-H2023", "relative viability": 0.986}, {"cell line": "NCI-H520", "relative viability": 0.711}, {"cell line": "SW 1573", "relative viability": 0.814}, {"cell line": "NCI-H1299", "relative viability": 1.11}, {"cell line": "NCI-H1563", "relative viability": 0.878}, {"cell line": "SK-LU-1", "relative viability": 0.818}, {"cell line": "NCI-H661", "relative viability": 0.93}]}, {"compound": "CN1CCN(CC1)C2=CC(=C(C=C2)NC3=NC(=C(S3)C(=O)C4=C(C=CC=C4Cl)Cl)N)OC [XMD14-99] + COc1cc2c(Oc3ccc(NC(=O)C4(C(=O)Nc5ccc(F)cc5)CC4)cc3F)ccnc2cc1OCCCN1CCOCC1 [Foretinib] (partner 0.25 µM)", "test": "relative viability (nuclei count vs DMSO), 5 days (fraction); higher = more cells survive", "settings": "first compound 0.8 µM", "summary_of_the_method": "as §1", "values": [{"cell line": "NCI-H1623", "relative viability": 0.86}, {"cell line": "NCI-H838", "relative viability": 0.943}, {"cell line": "NCI-H1650", "relative viability": 1.27}, {"cell line": "EBC-1", "relative viability": 0.11}, {"cell line": "NCI-H1703", "relative viability": 0.329}, {"cell line": "NCI-H2009", "relative viability": 1.25}, {"cell line": "NCI-H1993", "relative viability": 0.674}, {"cell line": "PC-14", "relative viability": 0.969}, {"cell line": "LCLC-103H", "relative viability": 0.691}, {"cell line": "NCI-H596", "relative viability": 0.895}, {"cell line": "NCI-H2228", "relative viability": 0.806}, {"cell line": "EMC-BAC-2", "relative viability": 0.978}, {"cell line": "NCI-H2087", "relative viability": 0.86}, {"cell line": "Calu-6", "relative viability": 0.905}, {"cell line": "HCC-366", "relative viability": 0.943}, {"cell line": "NCI-H1666", "relative viability": 0.859}, {"cell line": "NCI-H647", "relative viability": 1.15}, {"cell line": "LK-2", "relative viability": 1.17}, {"cell line": "NCI-H2126", "relative viability": 1.13}, {"cell line": "NCI-H2342", "relative viability": 0.943}, {"cell line": "SK-MES-1", "relative viability": 0.927}, {"cell line": "H3255", "relative viability": 0.9}, {"cell line": "COR-L23", "relative viability": 0.962}, {"cell line": "COR-L 105", "relative viability": 1.25}, {"cell line": "IA-LM", "relative viability": 0.964}, {"cell line": "LOU-NH91", "relative viability": 0.962}, {"cell line": "ChaGo-K-1", "relative viability": 0.939}, {"cell line": "NCI-H2170", "relative viability": 1.02}, {"cell line": "NCI-H3122", "relative viability": 0.964}, {"cell line": "HOP-62", "relative viability": 1.05}, {"cell line": "A549", "relative viability": 0.916}, {"cell line": "SW 900", "relative viability": 0.694}, {"cell line": "LU99A", "relative viability": 0.872}, {"cell line": "BEN", "relative viability": 0.695}, {"cell line": "HARA", "relative viability": 0.793}, {"cell line": "NCI-H2023", "relative viability": 0.842}, {"cell line": "NCI-H520", "relative viability": 0.712}, {"cell line": "SW 1573", "relative viability": 0.992}, {"cell line": "NCI-H1299", "relative viability": 1.02}, {"cell line": "NCI-H1563", "relative viability": 0.941}, {"cell line": "SK-LU-1", "relative viability": 0.803}, {"cell line": "NCI-H661", "relative viability": 0.883}]}, {"compound": "CN1CCN(CC1)C2=CC(=C(C=C2)NC3=NC(=C(S3)C(=O)C4=C(C=CC=C4Cl)Cl)N)OC [XMD14-99] + COc1cc2c(Oc3ccc(NC(=O)C4(C(=O)Nc5ccc(F)cc5)CC4)cc3F)ccnc2cc1OCCCN1CCOCC1 [Foretinib] (partner 0.25 µM)", "test": "relative viability (nuclei count vs DMSO), 5 days (fraction); higher = more cells survive", "settings": "first compound 2.53 µM", "summary_of_the_method": "as §1", "values": [{"cell line": "NCI-H1623", "relative viability": 0.88}, {"cell line": "NCI-H838", "relative viability": 0.926}, {"cell line": "NCI-H1650", "relative viability": 1.13}, {"cell line": "EBC-1", "relative viability": 0.112}, {"cell line": "NCI-H1703", "relative viability": 0.339}, {"cell line": "NCI-H2009", "relative viability": 1.14}, {"cell line": "NCI-H1993", "relative viability": 0.643}, {"cell line": "PC-14", "relative viability": 0.864}, {"cell line": "LCLC-103H", "relative viability": 0.734}, {"cell line": "NCI-H596", "relative viability": 0.832}, {"cell line": "NCI-H2228", "relative viability": 0.83}, {"cell line": "EMC-BAC-2", "relative viability": 0.854}, {"cell line": "NCI-H2087", "relative viability": 0.746}, {"cell line": "Calu-6", "relative viability": 0.843}, {"cell line": "HCC-366", "relative viability": 0.96}, {"cell line": "NCI-H1666", "relative viability": 0.866}, {"cell line": "NCI-H647", "relative viability": 1.22}, {"cell line": "LK-2", "relative viability": 0.991}, {"cell line": "NCI-H2126", "relative viability": 1.2}, {"cell line": "NCI-H2342", "relative viability": 0.973}, {"cell line": "SK-MES-1", "relative viability": 0.971}, {"cell line": "H3255", "relative viability": 0.737}, {"cell line": "COR-L23", "relative viability": 0.812}, {"cell line": "COR-L 105", "relative viability": 0.991}, {"cell line": "IA-LM", "relative viability": 0.978}, {"cell line": "LOU-NH91", "relative viability": 0.916}, {"cell line": "ChaGo-K-1", "relative viability": 0.88}, {"cell line": "NCI-H2170", "relative viability": 1.02}, {"cell line": "NCI-H3122", "relative viability": 0.847}, {"cell line": "HOP-62", "relative viability": 1.02}, {"cell line": "A549", "relative viability": 0.787}, {"cell line": "SW 900", "relative viability": 0.802}, {"cell line": "LU99A", "relative viability": 0.729}, {"cell line": "BEN", "relative viability": 0.705}, {"cell line": "HARA", "relative viability": 0.748}, {"cell line": "NCI-H2023", "relative viability": 0.704}, {"cell line": "NCI-H520", "relative viability": 0.662}, {"cell line": "SW 1573", "relative viability": 0.861}, {"cell line": "NCI-H1299", "relative viability": 1.1}, {"cell line": "NCI-H1563", "relative viability": 0.871}, {"cell line": "SK-LU-1", "relative viability": 0.758}, {"cell line": "NCI-H661", "relative viability": 0.796}]}, {"compound": "CN1CCN(CC1)C2=CC(=C(C=C2)NC3=NC(=C(S3)C(=O)C4=C(C=CC=C4Cl)Cl)N)OC [XMD14-99] + COc1cc2c(Oc3ccc(NC(=O)C4(C(=O)Nc5ccc(F)cc5)CC4)cc3F)ccnc2cc1OCCCN1CCOCC1 [Foretinib] (partner 0.25 µM)", "test": "relative viability (nuclei count vs DMSO), 5 days (fraction); higher = more cells survive", "settings": "first compound 8 µM", "summary_of_the_method": "as §1", "values": [{"cell line": "NCI-H1623", "relative viability": 0.68}, {"cell line": "NCI-H838", "relative viability": 0.887}, {"cell line": "NCI-H1650", "relative viability": 0.941}, {"cell line": "EBC-1", "relative viability": 0.0979}, {"cell line": "NCI-H1703", "relative viability": 0.273}, {"cell line": "NCI-H2009", "relative viability": 1.12}, {"cell line": "NCI-H1993", "relative viability": 0.595}, {"cell line": "PC-14", "relative viability": 0.852}, {"cell line": "LCLC-103H", "relative viability": 0.607}, {"cell line": "NCI-H596", "relative viability": 0.955}, {"cell line": "NCI-H2228", "relative viability": 0.444}, {"cell line": "EMC-BAC-2", "relative viability": 0.859}, {"cell line": "NCI-H2087", "relative viability": 0.569}, {"cell line": "Calu-6", "relative viability": 0.593}, {"cell line": "HCC-366", "relative viability": 0.918}, {"cell line": "NCI-H1666", "relative viability": 0.712}, {"cell line": "NCI-H647", "relative viability": 1.01}, {"cell line": "LK-2", "relative viability": 1.2}, {"cell line": "NCI-H2126", "relative viability": 0.832}, {"cell line": "NCI-H2342", "relative viability": 0.784}, {"cell line": "SK-MES-1", "relative viability": 0.745}, {"cell line": "H3255", "relative viability": 0.709}, {"cell line": "COR-L23", "relative viability": 0.572}, {"cell line": "COR-L 105", "relative viability": 0.734}, {"cell line": "IA-LM", "relative viability": 0.458}, {"cell line": "LOU-NH91", "relative viability": 0.802}, {"cell line": "ChaGo-K-1", "relative viability": 0.913}, {"cell line": "NCI-H2170", "relative viability": 0.921}, {"cell line": "NCI-H3122", "relative viability": 0.756}, {"cell line": "HOP-62", "relative viability": 1.01}, {"cell line": "A549", "relative viability": 0.693}, {"cell line": "SW 900", "relative viability": 0.718}, {"cell line": "LU99A", "relative viability": 0.649}, {"cell line": "BEN", "relative viability": 0.678}]}]}
